Assay results reported in patent US4795743A, “2'-deamino-2'-hydroxyistamycin Bo derivatives of low toxicity” (Zaidan Hojin Biseibutsu Kagaku Kenkyu Kai, priority 1986, dated 1989).
Converted amounts (≈) assume the structure as drawn. Like-named read-outs stand apart in the source and are kept apart here.

Assays:
[1] = test system: Pseudomonas aeruguinosa PST1; assay: Antibacterial spectrum, standard serial dilution method; type: cell-based, Pseudomonas aeruginosa; conditions: Muller-Hinton medium, 37° C., 18 hours, read-out: Minimum Growth Inhibitory Concentration
[2] = test system: Escherichia coli JR66/W677; assay: as above; type: cell-based; conditions: read-out: Minimum Growth Inhibitory Concentration
[3] = test system: Shibella flexneri 4b JS11811; assay: as above; type: cell-based; conditions: 18 h, read-out: Minimum Growth Inhibitory Concentration
[4] = test system: Serratia sp. 4; assay: as above; type: cell-based; conditions: Muller-Hinton medium, 37° C., 18 hours, read-out: Minimum Growth Inhibitory Concentration
[5] = test system: Escherichia coli NIHJ; assay: as above; type: cell-based; conditions: 18 h, read-out: Minimum Growth Inhibitory Concentration
[6] = test system: Escherichia coli K-12 ML1410 R81; assay: as above; type: cell-based; conditions: K12ML1410R81, 18 h, read-out: Minimum Growth Inhibitory Concentration
[7] = test system: Escherichia coli K-12 LA290 R56; assay: as above; type: cell-based; conditions: K12LA290R56, 18 h, read-out: Minimum Growth Inhibitory Concentration
[8] = test system: Pseudomonas aeruguinosa A3; assay: as above; type: cell-based, Pseudomonas aeruginosa; conditions: read-out: Minimum Growth Inhibitory Concentration
[9] = test system: Shigella dysernteriae JS11910; assay: as above; type: cell-based; conditions: Muller-Hinton medium, 37° C., 18 hours, read-out: Minimum Growth Inhibitory Concentration
[10] = test system: Staphylococcus aureus 209P; assay: Antibacterial spectrum, standard serial dilution method of Japan Society of Chemotherapy; type: cell-based; conditions: S. aureus 209P, Muller-Hinton medium, 37° C., 18 hours, read-out: Minimum Growth Inhibitory Concentration
[11] = test system: Proteus vulgaris OX19; assay: Antibacterial spectrum, standard serial dilution method; type: cell-based; conditions: read-out: Minimum Growth Inhibitory Concentration
[12] = test system: Pseudomonas aeruguinosa H11; assay: as above; type: cell-based, Pseudomonas aeruginosa; conditions: Muller-Hinton medium, 37° C., 18 hours, read-out: Minimum Growth Inhibitory Concentration
[13] = test system: Escherichia coli W677; assay: as above; type: cell-based; conditions: read-out: Minimum Growth Inhibitory Concentration
[14] = test system: Pseudomonas aeruguinosa TI-13; assay: as above; type: cell-based, Pseudomonas aeruginosa; conditions: read-out: Minimum Growth Inhibitory Concentration
[15] = test system: Sarcina lutea PCI 1001; assay: as above; type: cell-based; conditions: Micrococcus luteus, read-out: Minimum Growth Inhibitory Concentration
[16] = test system: Bacillus cereus ATCC 1-702; assay: as above; type: cell-based; conditions: read-out: Minimum Growth Inhibitory Concentration
[17] = test system: Escherichia coli K-12 C600 R135; assay: as above; type: cell-based; conditions: K12C600R135, E. coli K-12 C600 R135, Muller-Hinton medium, 37° C., 18 hours, read-out: Minimum Growth Inhibitory Concentration
[18] = test system: Escherichia coli K-12 J5 R11-2; assay: as above; type: cell-based; conditions: K12J5R112, 18 h, read-out: Minimum Growth Inhibitory Concentration
[19] = test system: Shigella sonnei; assay: as above; type: cell-based; conditions: Muller-Hinton medium, 37° C., 18 hours, read-out: Minimum Growth Inhibitory Concentration
[20] = test system: Escherichia coli JR225; assay: as above; type: cell-based; conditions: JR225, 18 h, read-out: Minimum Growth Inhibitory Concentration
[21] = test system: Providencia sp. Pv16; assay: as above; type: cell-based; conditions: read-out: Minimum Growth Inhibitory Concentration
[22] = test system: mice; assay: Acute toxicity by intravenous injection in mice; conditions: mice, intravenous injection, 200 mg/kg
[23] = test system: Salmonella enteritidis 1891; assay: Antibacterial spectrum, standard serial dilution method; type: cell-based; conditions: Salmonella enterica, Muller-Hinton medium, 37° C., 18 hours, read-out: Minimum Growth Inhibitory Concentration
[24] = test system: Staphylococcus aureus Ap 01; assay: as above; type: cell-based; conditions: AP01, 18 h, read-out: Minimum Growth Inhibitory Concentration
[25] = test system: Bacillus subtilis PCI 219; assay: as above; type: cell-based; conditions: PCI219; Bacillus subtilis PCI 219; Muller-Hinton medium, 37° C., 18 hours; read-out: Minimum Growth Inhibitory Concentration
[26] = test system: Proteus rettgeri GN466; assay: as above; type: cell-based; conditions: Providencia rettgeri, read-out: Minimum Growth Inhibitory Concentration
[27] = test system: Staphylococcus aureus Smith; assay: as above; type: cell-based; conditions: read-out: Minimum Growth Inhibitory Concentration
[28] = test system: Bacillus anthracis; assay: microbe, parasite or virus in culture; type: cell-based; conditions: 18 h, read-out: Minimum Growth Inhibitory Concentration
[29] = test system: Escherichia coli K-12 LA290 R55; assay: Antibacterial spectrum, standard serial dilution method; type: cell-based; conditions: K12LA290R55, 18 h, read-out: Minimum Growth Inhibitory Concentration
[30] = test system: Serratia sp. SOU; assay: as above; type: cell-based; conditions: read-out: Minimum Growth Inhibitory Concentration
[31] = test system: Escherichia coli K-12 ML1629; assay: as above; type: cell-based; conditions: K12ML1629, E. coli K-12 ML1629, Muller-Hinton medium, 37° C., 18 hours, read-out: Minimum Growth Inhibitory Concentration
[32] = test system: Pseudomonas aeruguinosa GN315; assay: as above; type: cell-based, Pseudomonas aeruginosa; conditions: read-out: Minimum Growth Inhibitory Concentration
[33] = test system: Escherichia coli K-12 R388; assay: as above; type: cell-based; conditions: K12R388, 18 h, read-out: Minimum Growth Inhibitory Concentration
[34] = test system: Mycobacterium smegmatis ATCC 607; assay: as above; type: cell-based; conditions: Mycolicibacterium smegmatis, read-out: Minimum Growth Inhibitory Concentration

Row | SMILES | MIC [1] [µg/mL] | MIC [3] [µg/mL] | MIC [4] [µg/mL] | MIC [5] [µg/mL] | MIC [6] [µg/mL] | MIC [7] [µg/mL] | MIC [9] [µg/mL] | MIC [10] [µg/mL] | MIC [12] [µg/mL] | MIC [17] [µg/mL] | MIC [18] [µg/mL] | MIC [19] [µg/mL] | MIC [20] [µg/mL] | acute toxicity (survival, symptoms) [22] | MIC [23] [µg/mL] | MIC [24] [µg/mL] | MIC [25] [µg/mL] | MIC [28] [µg/mL] | MIC [29] [µg/mL] | MIC [31] [µg/mL] | further results
1 | CNCC1CCC(O)C(OC2C(N)CC(O)C(N(C)C(=O)CN)C2O)O1 (centres unmarked) [Compound No. 2, 2'-Deamino-2'-hydroxy-3-O-demethylistamycin B] | 25 (≈ 66.4 µM) | 12.5 (≈ 33.2 µM) | 25 (≈ 66.4 µM) | 1.56 (≈ 4.14 µM) | 6.25 (≈ 16.6 µM) | 3.13 (≈ 8.31 µM) | 12.5 (≈ 33.2 µM) | 3.13 (≈ 8.31 µM) | 25 (≈ 66.4 µM) | 3.13 (≈ 8.31 µM) | 1.56 (≈ 4.14 µM) | 6.25 (≈ 16.6 µM) | 1.56 (≈ 4.14 µM) | survived without showing any sympton of toxicity | 12.5 (≈ 33.2 µM) | 6.25 (≈ 16.6 µM) | 3.13 (≈ 8.31 µM) | 1.56 (≈ 4.14 µM) | 6.25 (≈ 16.6 µM) | 6.25 (≈ 16.6 µM) | MIC ([2]; JR66/W677, 18 h): 6.25 µg/mL (≈ 16.6 µM); MIC ([8]; Pseudomonas aeruguinosa A3, Muller-Hinton medium, 37° C., 18 hours): 0.39 µg/mL (≈ 1.04 µM); MIC ([11]; Proteus vulgaris, OX19, 18 h): 1.56 µg/mL (≈ 4.14 µM); MIC ([13]; E. coli W677, Muller-Hinton medium, 37° C., 18 hours): 3.13 µg/mL (≈ 8.31 µM); MIC ([14]; Pseudomonas, TI13, 18 h): 12.5 µg/mL (≈ 33.2 µM); MIC ([15]; PCI1001, 18 h): 1.56 µg/mL (≈ 4.14 µM); MIC ([16]; Bacillus cereus, ATCC1, 18 h): 6.25 µg/mL (≈ 16.6 µM); MIC ([21]; Providencia sp. Pv16, Muller-Hinton medium, 37° C., 18 hours): 3.13 µg/mL (≈ 8.31 µM); MIC ([26]; GN466, 18 h): 1.56 µg/mL (≈ 4.14 µM); MIC ([27]; 18 h): 1.56 µg/mL (≈ 4.14 µM); MIC ([30]; Serratia sp. SOU, Muller-Hinton medium, 37° C., 18 hours): 3.13 µg/mL (≈ 8.31 µM); MIC ([32]; Pseudomonas, GN315, 18 h): 12.5 µg/mL (≈ 33.2 µM); MIC [33]: 3.13 µg/mL (≈ 8.31 µM); MIC ([34]; ATCC607, 18 h): 6.25 µg/mL (≈ 16.6 µM)
2 | CNCC1CCC(O)C(OC2C(N)CC(OC)C(N(C)C(=O)CN)C2O)O1 (centres unmarked) [Compound No. 1, 2'-Deamino-2'-hydroxyistamycin B] | 100 (≈ 256 µM) | 12.5 (≈ 32 µM) | > 100 | 1.56 (≈ 4 µM) | 6.25 (≈ 16 µM) | 3.13 (≈ 8.02 µM) | 6.25 (≈ 16 µM) | 3.13 (≈ 8.02 µM) | > 100 | 3.13 (≈ 8.02 µM) | 1.56 (≈ 4 µM) | 6.25 (≈ 16 µM) | 3.13 (≈ 8.02 µM) | survived without showing any sympton of toxicity | 6.25 (≈ 16 µM) | 6.25 (≈ 16 µM) | 3.13 (≈ 8.02 µM) | 12.5 (≈ 32 µM) | 6.25 (≈ 16 µM) | 6.25 (≈ 16 µM) | MIC ([2]; E. coli JR66/W677, Muller-Hinton medium, 37° C., 18 hours): 3.13 µg/mL (≈ 8.02 µM); MIC ([8]; Pseudomonas, A3, 18 h): 6.25 µg/mL (≈ 16 µM); MIC ([11]; Proteus vulgaris OX19, Muller-Hinton medium, 37° C., 18 hours): 3.13 µg/mL (≈ 8.02 µM); MIC ([13]; W677, 18 h): 1.56 µg/mL (≈ 4 µM); MIC ([14]; TI13, Pseudomonas aeruguinosa TI-13, Muller-Hinton medium, 37° C., 18 hours): 100 µg/mL (≈ 256 µM); MIC ([15]; PCI1001, Sarcina lutea PCI 1001, Muller-Hinton medium, 37° C., 18 hours): 3.13 µg/mL (≈ 8.02 µM); MIC ([16]; ATCC1, Bacillus cereus ATCC 1-702, Muller-Hinton medium, 37° C., 18 hours): 50 µg/mL (≈ 128 µM); MIC ([21]; Providencia, SP.PV16, 18 h): 6.25 µg/mL (≈ 16 µM); MIC ([26]; Proteus rettgeri GN466, Muller-Hinton medium, 37° C., 18 hours): 3.13 µg/mL (≈ 8.02 µM); MIC ([27]; S. aureus Smith, Muller-Hinton medium, 37° C., 18 hours): 3.13 µg/mL (≈ 8.02 µM); MIC ([30]; Serratia, 18 h): 6.25 µg/mL (≈ 16 µM); MIC ([32]; Pseudomonas aeruguinosa GN315, Muller-Hinton medium, 37° C., 18 hours): 100 µg/mL (≈ 256 µM); MIC [33]: 3.13 µg/mL (≈ 8.02 µM); MIC ([34]; ATCC607, Mycobacterium smegmatis ATCC 607, Muller-Hinton medium, 37° C., 18 hours): 25 µg/mL (≈ 64 µM)
